How the values were obtained:
Assay in all cases: biochemical
Design in all cases: DiscoveRx KINOMEscan competition binding, percent of DMSO control signal at 100 nM
Details in all cases: read-out: Fig. 4a / Percent Control / Compound 1; percent of DMSO control, competition binding
[1] = molecular target: T1, ABL1(T315I)-nonphosphorylated (Homo sapiens, UniProt P00519, T315I)
T1 construct: nonphosphorylated

[2] = molecular target: CSNK1A1 (Homo sapiens, UniProt P48729)
[3] = molecular target: T2, NIK (Homo sapiens, UniProt Q99558)
T2 construct: gene MAP3K14

[4] = molecular target: T3, TRKA (Homo sapiens, UniProt P04629)
T3 construct: gene NTRK1

[5] = molecular target: CDK8 (Homo sapiens, UniProt P49336)
[6] = molecular target: T4, VEGFR2 (Homo sapiens, UniProt P35968)
T4 construct: gene KDR

[7] = molecular target: FGR (Homo sapiens, UniProt P09769)
[8] = molecular target: FLT3(ITD,D835V) (Homo sapiens, UniProt P36888, D835V/ITD)
[9] = molecular target: IRAK4 (Homo sapiens, UniProt Q9NWZ3)
[10] = molecular target: FLT3(D835H) (Homo sapiens, UniProt P36888, D835H)
[11] = molecular target: PIK3C2G (Homo sapiens, UniProt O75747)
[12] = molecular target: PIP5K1C (Homo sapiens, UniProt O60331)
[13] = molecular target: NEK1 (Homo sapiens, UniProt Q96PY6)
[14] = molecular target: GSK3A (Homo sapiens, UniProt P49840)
[15] = molecular target: NEK11 (Homo sapiens, UniProt Q8NG66)
[16] = molecular target: ROCK1 (Homo sapiens, UniProt Q13464)
[17] = molecular target: T5, JAK2(JH1domain-catalytic) (Homo sapiens, UniProt O60674)
T5 construct: JH1domain-catalytic

[18] = molecular target: MUSK (Homo sapiens, UniProt O15146)
[19] = molecular target: T6, DLK (Homo sapiens, UniProt Q12852)
T6 construct: gene MAP3K12

[20] = molecular target: EPHB2 (Homo sapiens, UniProt P29323)
[21] = molecular target: ITK (Homo sapiens, UniProt Q08881)
[22] = molecular target: T7, ASK2 (Homo sapiens, UniProt O95382)
T7 construct: gene MAP3K6

[23] = molecular target: DAPK2 (Homo sapiens, UniProt Q9UIK4)
[24] = molecular target: T8, YSK1 (Homo sapiens, UniProt O00506)
T8 construct: gene STK25

[25] = molecular target: T9, DRAK2 (Homo sapiens, UniProt O94768)
T9 construct: gene STK17B
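Further: KINOMEscan kinase panel binding assay, signal normalized between DMSO as 100% and a positive control compound as 0%.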

Sequence of EPHB2 (P29323 whole entry): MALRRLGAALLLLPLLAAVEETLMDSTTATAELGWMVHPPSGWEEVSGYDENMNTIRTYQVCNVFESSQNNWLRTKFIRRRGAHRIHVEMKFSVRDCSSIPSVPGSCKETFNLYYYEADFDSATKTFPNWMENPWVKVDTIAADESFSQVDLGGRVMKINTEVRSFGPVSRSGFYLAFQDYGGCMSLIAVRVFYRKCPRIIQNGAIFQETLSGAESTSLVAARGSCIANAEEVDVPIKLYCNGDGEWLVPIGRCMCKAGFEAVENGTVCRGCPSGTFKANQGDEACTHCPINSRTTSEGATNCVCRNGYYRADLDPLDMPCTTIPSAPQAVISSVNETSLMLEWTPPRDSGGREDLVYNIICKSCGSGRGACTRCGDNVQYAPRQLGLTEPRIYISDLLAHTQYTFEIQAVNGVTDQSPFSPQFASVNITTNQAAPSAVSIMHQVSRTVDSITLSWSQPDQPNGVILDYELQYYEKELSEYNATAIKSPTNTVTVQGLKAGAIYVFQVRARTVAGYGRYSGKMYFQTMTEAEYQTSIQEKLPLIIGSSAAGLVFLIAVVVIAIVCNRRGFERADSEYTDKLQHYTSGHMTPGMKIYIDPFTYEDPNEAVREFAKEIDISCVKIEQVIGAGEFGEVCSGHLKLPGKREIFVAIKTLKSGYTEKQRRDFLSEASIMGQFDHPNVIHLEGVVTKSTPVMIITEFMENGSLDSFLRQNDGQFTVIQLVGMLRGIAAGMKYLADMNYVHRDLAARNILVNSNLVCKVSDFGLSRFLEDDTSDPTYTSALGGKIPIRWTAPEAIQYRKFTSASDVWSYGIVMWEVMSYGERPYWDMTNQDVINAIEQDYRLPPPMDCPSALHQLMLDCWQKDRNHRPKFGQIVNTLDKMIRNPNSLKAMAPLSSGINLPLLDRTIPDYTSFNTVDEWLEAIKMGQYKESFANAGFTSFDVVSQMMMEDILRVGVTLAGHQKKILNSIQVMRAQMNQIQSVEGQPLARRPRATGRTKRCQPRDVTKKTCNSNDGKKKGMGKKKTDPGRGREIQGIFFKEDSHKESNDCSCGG
Sequence of MUSK (O15146 whole entry): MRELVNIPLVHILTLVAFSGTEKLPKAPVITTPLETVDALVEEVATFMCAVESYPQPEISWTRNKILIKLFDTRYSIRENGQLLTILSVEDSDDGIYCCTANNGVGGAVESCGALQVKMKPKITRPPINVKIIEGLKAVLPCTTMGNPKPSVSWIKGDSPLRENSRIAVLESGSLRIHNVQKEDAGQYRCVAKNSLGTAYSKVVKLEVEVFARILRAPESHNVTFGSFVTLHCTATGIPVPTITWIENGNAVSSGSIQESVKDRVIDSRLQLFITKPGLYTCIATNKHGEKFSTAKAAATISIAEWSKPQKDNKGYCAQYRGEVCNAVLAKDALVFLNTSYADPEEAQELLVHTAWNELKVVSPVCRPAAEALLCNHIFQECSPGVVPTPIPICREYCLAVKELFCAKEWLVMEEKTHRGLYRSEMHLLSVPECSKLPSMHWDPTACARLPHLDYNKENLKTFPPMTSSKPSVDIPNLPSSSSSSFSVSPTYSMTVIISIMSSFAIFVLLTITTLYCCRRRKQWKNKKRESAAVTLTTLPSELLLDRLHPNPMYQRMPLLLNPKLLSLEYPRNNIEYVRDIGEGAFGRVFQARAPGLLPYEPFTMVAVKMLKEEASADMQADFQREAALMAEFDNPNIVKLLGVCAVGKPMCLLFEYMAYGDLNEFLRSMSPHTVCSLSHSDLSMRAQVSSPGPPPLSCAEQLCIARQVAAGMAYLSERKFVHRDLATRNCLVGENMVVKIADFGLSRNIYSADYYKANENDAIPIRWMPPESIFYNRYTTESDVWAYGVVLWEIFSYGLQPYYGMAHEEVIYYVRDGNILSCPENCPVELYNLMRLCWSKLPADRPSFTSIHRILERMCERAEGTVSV
Sequence of CSNK1A1 (P48729 whole entry): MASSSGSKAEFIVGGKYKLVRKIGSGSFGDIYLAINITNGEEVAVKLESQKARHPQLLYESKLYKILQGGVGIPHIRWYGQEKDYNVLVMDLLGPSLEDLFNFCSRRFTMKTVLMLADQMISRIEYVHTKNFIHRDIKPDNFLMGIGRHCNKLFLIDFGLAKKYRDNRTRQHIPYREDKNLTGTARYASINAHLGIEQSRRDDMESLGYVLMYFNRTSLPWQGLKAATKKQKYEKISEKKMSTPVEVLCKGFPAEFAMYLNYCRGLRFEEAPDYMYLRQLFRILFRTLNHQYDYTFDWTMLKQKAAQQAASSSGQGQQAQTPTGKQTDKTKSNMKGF
T8 sequence (O00506 whole entry): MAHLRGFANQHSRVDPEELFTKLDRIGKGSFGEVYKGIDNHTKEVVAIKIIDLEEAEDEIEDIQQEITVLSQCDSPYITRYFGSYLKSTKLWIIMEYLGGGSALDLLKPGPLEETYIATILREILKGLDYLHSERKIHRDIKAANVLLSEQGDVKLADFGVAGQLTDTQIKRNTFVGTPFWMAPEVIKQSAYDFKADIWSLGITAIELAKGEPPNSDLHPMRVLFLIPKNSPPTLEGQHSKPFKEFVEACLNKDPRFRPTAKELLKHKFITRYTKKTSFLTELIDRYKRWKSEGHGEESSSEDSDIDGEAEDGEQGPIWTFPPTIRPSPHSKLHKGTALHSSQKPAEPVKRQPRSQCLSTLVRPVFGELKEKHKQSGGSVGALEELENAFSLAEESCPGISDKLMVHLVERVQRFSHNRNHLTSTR
T2 sequence (Q99558 whole entry): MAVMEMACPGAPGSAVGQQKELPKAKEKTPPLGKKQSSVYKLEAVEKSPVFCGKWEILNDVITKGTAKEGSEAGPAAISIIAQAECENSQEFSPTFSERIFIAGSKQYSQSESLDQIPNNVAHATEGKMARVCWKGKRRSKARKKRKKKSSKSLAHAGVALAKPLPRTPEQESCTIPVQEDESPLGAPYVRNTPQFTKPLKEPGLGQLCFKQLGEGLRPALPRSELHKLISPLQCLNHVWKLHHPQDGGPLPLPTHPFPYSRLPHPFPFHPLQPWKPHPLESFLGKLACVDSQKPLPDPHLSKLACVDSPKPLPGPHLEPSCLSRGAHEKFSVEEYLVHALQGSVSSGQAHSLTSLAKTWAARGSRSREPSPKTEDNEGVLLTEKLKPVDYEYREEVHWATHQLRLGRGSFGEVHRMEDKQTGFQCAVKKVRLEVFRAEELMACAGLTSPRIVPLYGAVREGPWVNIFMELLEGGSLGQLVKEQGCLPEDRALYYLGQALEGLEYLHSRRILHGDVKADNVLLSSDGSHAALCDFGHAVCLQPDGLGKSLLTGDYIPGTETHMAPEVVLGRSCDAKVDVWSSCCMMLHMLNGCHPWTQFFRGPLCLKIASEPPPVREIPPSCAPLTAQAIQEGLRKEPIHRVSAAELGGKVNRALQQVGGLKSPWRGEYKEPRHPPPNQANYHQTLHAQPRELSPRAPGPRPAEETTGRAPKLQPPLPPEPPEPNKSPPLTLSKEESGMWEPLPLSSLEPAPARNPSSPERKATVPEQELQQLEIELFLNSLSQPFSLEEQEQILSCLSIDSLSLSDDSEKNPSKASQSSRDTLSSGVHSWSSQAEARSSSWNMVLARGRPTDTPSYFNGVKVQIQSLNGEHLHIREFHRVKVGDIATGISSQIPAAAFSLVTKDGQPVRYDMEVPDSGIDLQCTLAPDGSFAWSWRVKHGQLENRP
T5 sequence (O60674 whole entry): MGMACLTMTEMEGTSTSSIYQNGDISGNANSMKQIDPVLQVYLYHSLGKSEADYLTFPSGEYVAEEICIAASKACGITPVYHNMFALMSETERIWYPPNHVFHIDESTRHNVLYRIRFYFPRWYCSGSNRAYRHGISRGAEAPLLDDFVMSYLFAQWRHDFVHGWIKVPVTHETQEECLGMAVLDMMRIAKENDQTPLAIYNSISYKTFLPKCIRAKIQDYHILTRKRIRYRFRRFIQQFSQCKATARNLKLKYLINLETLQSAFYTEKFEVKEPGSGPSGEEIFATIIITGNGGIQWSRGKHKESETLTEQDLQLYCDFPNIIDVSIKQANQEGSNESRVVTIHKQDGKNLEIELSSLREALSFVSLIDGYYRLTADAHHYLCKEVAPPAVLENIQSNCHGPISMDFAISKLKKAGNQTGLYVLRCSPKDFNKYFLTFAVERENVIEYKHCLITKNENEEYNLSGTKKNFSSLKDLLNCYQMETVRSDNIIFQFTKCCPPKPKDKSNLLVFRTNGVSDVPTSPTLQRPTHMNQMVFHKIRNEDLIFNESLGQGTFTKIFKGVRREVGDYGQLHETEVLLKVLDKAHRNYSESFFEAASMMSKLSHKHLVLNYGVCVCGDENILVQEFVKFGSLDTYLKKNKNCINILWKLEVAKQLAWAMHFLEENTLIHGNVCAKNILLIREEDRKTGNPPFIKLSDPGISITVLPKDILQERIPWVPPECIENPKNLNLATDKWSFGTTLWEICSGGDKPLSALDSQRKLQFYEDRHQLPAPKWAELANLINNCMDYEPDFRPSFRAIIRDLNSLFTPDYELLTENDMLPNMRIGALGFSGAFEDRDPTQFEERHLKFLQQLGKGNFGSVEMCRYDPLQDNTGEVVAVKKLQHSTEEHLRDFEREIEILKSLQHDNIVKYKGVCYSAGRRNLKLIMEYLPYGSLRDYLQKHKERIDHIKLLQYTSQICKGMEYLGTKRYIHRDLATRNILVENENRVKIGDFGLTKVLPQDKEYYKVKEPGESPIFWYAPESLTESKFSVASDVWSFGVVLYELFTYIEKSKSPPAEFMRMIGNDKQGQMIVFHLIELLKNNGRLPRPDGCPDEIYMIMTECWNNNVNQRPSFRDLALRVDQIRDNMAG

## Cc1cnc2nc1Nc1cccc(c1)COCc1cc(ccc1OCCN1CCCC1)N2 [Compound 1]
[1]
  remaining binding at 0.1 µM: 80%
[2]
  remaining binding at 0.1 µM: 95%
[3]
  remaining binding at 0.1 µM: 74%
[4]
  remaining binding at 0.1 µM: 26%
[5]
  remaining binding at 0.1 µM: 100%
[6]
  remaining binding at 0.1 µM: 63%
[7]
  remaining binding at 0.1 µM: 100%
[8]
  remaining binding at 0.1 µM: 2.1%
[9]
  remaining binding at 0.1 µM: 72%
[10]
  remaining binding at 0.1 µM: 46%
[11]
  remaining binding at 0.1 µM: 80%
[12]
  remaining binding at 0.1 µM: 66%
[13]
  remaining binding at 0.1 µM: 100%
[14]
  remaining binding at 0.1 µM: 100%
[15]
  remaining binding at 0.1 µM: 69%
[16]
  remaining binding at 0.1 µM: 88%
[17]
  remaining binding at 0.1 µM: 0%
[18]
  remaining binding at 0.1 µM: 90%
[19]
  remaining binding at 0.1 µM: 43%
[20]
  remaining binding at 0.1 µM: 88%
[21]
  remaining binding at 0.1 µM: 93%
[22]
  remaining binding at 0.1 µM: 96%
[23]
  remaining binding at 0.1 µM: 98%
[24]
  remaining binding at 0.1 µM: 91%
[25]
  remaining binding at 0.1 µM: 100%
